Assay results taken from patent US12173007B2, “Imidazopyridazine IL-17 inhibitor compounds” (Janssen Pharmaceutica NV, priority 2021, dated 2024).

What was measured:
[1] = test system: IL-17A-induced G-CSF production in human normal keratinocyte (NHK); assay: NHK assay: IL-17A-induced G-CSF production in normal human keratinocytes; type: cell-based; conditions: Homo sapiens, Keratinocyte, 24 h, IL-17A 5 ng/mL, G-CSF by HTRF, average if tested more than once
Outline: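 Stimulus rhIL-17A 5 ng/mL final, premixed 1 h rt with compound; adult NHK, 5% FBS, 0.2% DMSO. Viability by CellTiter-Glo vs DMSO.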

[2] = molecular target: IL-17A(FLAG-Tagged): IL-17RA(His-Tagged) binding (Homo sapiens, UniProt Q16552, K93Q); assay: IL-17A(FLAG-tagged):IL-17RA(His-tagged) binding disruption Eu-HTRF assay, Protocol 2; conditions: FLAG-IL-17A 1 nM; average if tested more than once
Outline: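 FLAG-tagged IL-17A (1 nM final) was preincubated with compound (2-fold serial dilutions, 22 points) for 1 h at rt in PBS + 0.01% Triton X-100. 10×His-IL-17RA, Eu-anti-FLAG and D2-anti-His in buffer containing KF were then added for 2 h at rt. IC50 came from the 665/615 nm HTRF ratio fitted to a one-site competition model.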

Sequence of UniProt Q16552 (Q16552 with tags, fused parts or gaps K93Q): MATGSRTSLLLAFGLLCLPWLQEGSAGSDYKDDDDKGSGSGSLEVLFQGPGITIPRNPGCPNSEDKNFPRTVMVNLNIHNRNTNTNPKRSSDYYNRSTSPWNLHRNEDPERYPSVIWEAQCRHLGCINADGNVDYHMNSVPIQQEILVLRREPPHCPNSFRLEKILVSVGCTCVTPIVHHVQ

SMILES	IC50 [1] [nM]	IC50 [2] [nM]
[2H]C1([2H])NC(=O)N([C@H](COC2CC2)c2cnn3cc([C@@H](NC(=O)c4nonc4C(F)F)C4CCC(F)(F)CC4)nc3c2)C([2H])([2H])C1(F)F [Example 82, N—((S)-(7-((S)-2-Cyclopropoxy-1-(5,5-difluoro-2-oxotetrahydropyrimidin-1(2H)-yl-4,4,6,6-d4)ethyl)imidazo[1,2-b]pyridazin-2-yl)(4,4-difluorocyclohexyl)methyl)-4-(difluoromethyl)-1,2,5-oxadiazole-3-carboxamide]	< 50	< 50
[2H]C1([2H])NC(=O)N([C@H](COC)c2cnn3cc([C@H](CCC(C)(C)C(F)(F)F)NC(=O)c4nonc4C(F)(F)F)nc3c2)C([2H])([2H])C1(F)F [Example 83, N—((S)-1-(7-((S)-1-(5,5-Difluoro-2-oxotetrahydropyrimidin-1(2H)-yl-4,4,6,6-d4)-2-methoxyethyl)imidazo[1,2-b]pyridazin-2-yl)-5,5,5-trifluoro-4,4-dimethylpentyl)-4-(trifluoromethyl)-1,2,5-oxadiazole-3-carboxamide]	< 50	< 50
COC[C@H](c1cnn2cc([C@@H](NC(=O)c3nonc3C(F)(F)F)C3CCC(F)(F)CC3)nc2c1)N1CC(F)(F)CNC1=O [Example 84, N—((S)-(7-((S)-1-(5,5-Difluoro-2-oxotetrahydropyrimidin-1(2H)-yl)-2-methoxyethyl)imidazo[1,2-b]pyridazin-2-yl)(4,4-difluorocyclohexyl)methyl)-4-(trifluoromethyl)-1,2,5-oxadiazole-3-carboxamide]	< 50	< 50
O=C(N[C@H](c1cn2ncc([C@@H](C(F)F)N3CC(F)(F)CNC3=O)cc2n1)C1CCC(F)(F)CC1)c1nonc1C1CC1 [Example 89, 4-Cyclopropyl-N—((S)-(7-((S)-1-(5,5-difluoro-2-oxotetrahydropyrimidin-1(2H)-yl)-2,2-difluoroethyl)imidazo[1,2-b]pyridazin-2-yl)(4,4-difluorocyclohexyl)methyl)-1,2,5-oxadiazole-3-carboxamide]	< 50	< 50
COC[C@H](c1cnn2cc([C@@H](NC(=O)c3nonc3C)C(C3CC3)C3CC3)nc2c1)N1CC(F)(F)CNC1=O [Example 102, N—((S)-2,2-Dicyclopropyl-1-(7-((S)-1-(5,5-difluoro-2-oxotetrahydropyrimidin-1(2H)-yl)-2-methoxyethyl)imidazo[1,2-b]pyridazin-2-yl)ethyl)-4-methyl-1,2,5-oxadiazole-3-carboxamide]	< 50	< 50
COC[C@H](c1cnn2cc([C@@H](NC(=O)c3nonc3C3CC3)C(C3CC3)C3CC3)nc2c1)N1CC(F)(F)CNC1=O [Example 103, 4-Cyclopropyl-N—((S)-2,2-dicyclopropyl-1-(7-((S)-1-(5,5-difluoro-2-oxotetrahydropyrimidin-1(2H)-yl)-2-methoxyethyl)imidazo[1,2-b]pyridazin-2-yl)ethyl)-1,2,5-oxadiazole-3-carboxamide]	< 50	< 50
COC[C@H](c1cnn2cc([C@@H](NC(=O)c3nocc3CC(F)(F)F)C3CCC(F)(F)CC3)nc2c1)N1CC(F)(F)CNC1=O [Example 106, N—((S)-(7-((S)-1-(5,5-Difluoro-2-oxotetrahydropyrimidin-1(2H)-yl)-2-methoxyethyl)imidazo[1,2-b]pyridazin-2-yl)(4,4-difluorocyclohexyl)methyl)-4-(2,2,2-trifluoroethyl)isoxazole-3-carboxamide]	< 50	< 50
[2H]C1([2H])NC(=O)N([C@H](COC2CC2)c2cnn3cc([C@@H](NC(=O)c4nocc4CC(F)(F)F)C4CCC(F)(F)CC4)nc3c2)C([2H])([2H])C1(F)F [Example 107, N—((S)-(7-((S)-2-Cyclopropoxy-1-(5,5-difluoro-2-oxotetrahydropyrimidin-1(2H)-yl-4,4,6,6-d4)ethyl)imidazo[1,2-b]pyridazin-2-yl)(4,4-difluorocyclohexyl)methyl)-4-(2,2,2-trifluoroethyl)isoxazole-3-carboxamide]	< 50	< 50
COC[C@H](c1cnn2cc([C@@H](NC(=O)c3nonc3OC)C3CCC(F)(F)CC3)nc2c1)N1CC(F)(F)CNC1=O [Example 108, N—((S)-(7-((S)-1-(5,5-Difluoro-2-oxotetrahydropyrimidin-1(2H)-yl)-2-methoxyethyl)imidazo[1,2-b]pyridazin-2-yl)(4,4-difluorocyclohexyl)methyl)-4-methoxy-1,2,5-oxadiazole-3-carboxamide]	< 50	< 50
COC[C@H](c1cnn2cc([C@H](CCC(C)(C)C(F)(F)F)NC(=O)c3nonc3OC)nc2c1)N1CC(F)(F)CNC1=O [Example 109, N—((S)-1-(7-((S)-1-(5,5-Difluoro-2-oxotetrahydropyrimidin-1(2H)-yl)-2-methoxyethyl)imidazo[1,2-b]pyridazin-2-yl)-5,5,5-trifluoro-4,4-dimethylpentyl)-4-methoxy-1,2,5-oxadiazole-3-carboxamide]	< 50	< 50
COC[C@H](c1cnn2cc([C@H](CCC(C)(C)C(F)(F)F)NC(=O)c3nonc3C(F)F)nc2c1)N1CC(F)(F)CNC1=O [Example 110, N—((S)-1-(7-((S)-1-(5,5-Difluoro-2-oxotetrahydropyrimidin-1(2H)-yl)-2-methoxyethyl)imidazo[1,2-b]pyridazin-2-yl)-5,5,5-trifluoro-4,4-dimethylpentyl)-4-(difluoromethyl)-1,2,5-oxadiazole-3-carboxamide]	< 50	< 50
COC[C@H](c1cnn2cc([C@H](CCC(C)(C)C(F)(F)F)NC(=O)c3ncnn3C(C)C)nc2c1)N1CC(F)(F)CNC1=O [Example 111, N—((S)-1-(7-((S)-1-(5,5-Difluoro-2-oxotetrahydropyrimidin-1(2H)-yl)-2-methoxyethyl)imidazo[1,2-b]pyridazin-2-yl)-5,5,5-trifluoro-4,4-dimethylpentyl)-1-isopropyl-1H-1,2,4-triazole-5-carboxamide]	< 50	< 50
[2H]C1([2H])NC(=O)N([C@H](COC)c2cnn3cc([C@H](CCC(C)(C)C(F)(F)F)NC(=O)c4ncnn4C(C)C)nc3c2)C([2H])([2H])C1(F)F [Example 112, N—((S)-1-(7-((S)-1-(5,5-Difluoro-2-oxotetrahydropyrimidin-1(2H)-yl-4,4,6,6-d4)-2-methoxyethyl)imidazo[1,2-b]pyridazin-2-yl)-5,5,5-trifluoro-4,4-dimethylpentyl)-1-isopropyl-1H-1,2,4-triazole-5-carboxamide]	50 to 100	< 50
COc1nonc1C(=O)N[C@@H](CCC(C)(C)C(F)(F)F)c1cn2ncc(CN3CC(F)(F)CNC3=O)cc2n1 [Example 113, (S)—N-(1-(7-((5,5-Difluoro-2-oxotetrahydropyrimidin-1(2H)-yl)methyl)imidazo[1,2-b]pyridazin-2-yl)-5,5,5-trifluoro-4,4-dimethylpentyl)-4-methoxy-1,2,5-oxadiazole-3-carboxamide]	< 50	< 50
CC(C)(CC[C@H](NC(=O)c1nonc1C1CC1)c1cn2ncc(CN3CC(F)(F)CNC3=O)cc2n1)C(F)(F)F [Example 114, (S)-4-Cyclopropyl-N-(1-(7-((5,5-difluoro-2-oxotetrahydropyrimidin-1(2H)-yl)methyl)imidazo[1,2-b]pyridazin-2-yl)-5,5,5-trifluoro-4,4-dimethylpentyl)-1,2,5-oxadiazole-3-carboxamide]	< 50	< 50
Cc1nonc1C(=O)N[C@@H](CCC(C)(C)C(F)(F)F)c1cn2ncc(CN3CC(F)(F)CNC3=O)cc2n1 [Example 115, (S)—N-(1-(7-((5,5-Difluoro-2-oxotetrahydropyrimidin-1(2H)-yl)methyl)imidazo[1,2-b]pyridazin-2-yl)-5,5,5-trifluoro-4,4-dimethylpentyl)-4-methyl-1,2,5-oxadiazole-3-carboxamide]	50 to 100	< 50
COc1nonc1C(=O)N[C@@H](CCC(C)(C)C(F)(F)F)c1cn2ncc([C@@H](COC3CC3)N3CC(F)(F)CNC3=O)cc2n1 [Example 122, N—((S)-1-(7-((S)-2-Cyclopropoxy-1-(5,5-difluoro-2-oxotetrahydropyrimidin-1(2H)-yl)ethyl)imidazo[1,2-b]pyridazin-2-yl)-5,5,5-trifluoro-4,4-dimethylpentyl)-4-methoxy-1,2,5-oxadiazole-3-carboxamide]	< 50	< 50
COC[C@H](c1cnn2cc([C@@H](NC(=O)c3nonc3C)C3CCC(F)(F)CC3)nc2c1)N1CC(F)(F)C(F)(F)CNC1=O [Example 123, N—((S)-(4,4-Difluorocyclohexyl)(7-((S)-2-methoxy-1-(5,5,6,6-tetrafluoro-2-oxo-1,3-diazepan-1-yl)ethyl)imidazo[1,2-b]pyridazin-2-yl)methyl)-4-methyl-1,2,5-oxadiazole-3-carboxamide]	50 to 100	< 50
COC[C@H](c1cnn2cc([C@@H](NC(=O)c3nonc3OC)C3CCC(F)(F)CC3)nc2c1)N1CC(F)(F)C(F)(F)CNC1=O [Example 124, N—((S)-(4,4-Difluorocyclohexyl)(7-((S)-2-methoxy-1-(5,5,6,6-tetrafluoro-2-oxo-1,3-diazepan-1-yl)ethyl)imidazo[1,2-b]pyridazin-2-yl)methyl)-4-methoxy-1,2,5-oxadiazole-3-carboxamide]	50 to 100	< 50
